{"source": "paper PMC11079024", "about": "“Identification of a family of species-selective complex I inhibitors as potential anthelmintics” (Nature Communications, 2024)", "key": {"[1]": {"assay": "in vitro", "conditions": "human; for CC50 at 2 days: HEK293 Cell Viability Assay LC50, HEK293 cells, estimated from fitted dose-response curves"}, "[2]": {"target": "B. taurus (heart) complex I (Bos taurus, UniProt P03887+P17694+P42026)", "sequence (P03887 whole entry)": "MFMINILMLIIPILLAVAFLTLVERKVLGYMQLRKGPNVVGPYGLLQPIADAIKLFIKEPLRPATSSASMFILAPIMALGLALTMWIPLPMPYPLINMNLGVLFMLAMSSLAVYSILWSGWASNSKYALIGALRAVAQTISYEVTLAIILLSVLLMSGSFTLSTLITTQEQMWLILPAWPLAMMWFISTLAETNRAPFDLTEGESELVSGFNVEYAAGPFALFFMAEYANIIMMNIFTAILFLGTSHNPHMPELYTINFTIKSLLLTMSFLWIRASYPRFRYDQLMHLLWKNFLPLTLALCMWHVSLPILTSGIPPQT", "sequence (P17694 34-463)": "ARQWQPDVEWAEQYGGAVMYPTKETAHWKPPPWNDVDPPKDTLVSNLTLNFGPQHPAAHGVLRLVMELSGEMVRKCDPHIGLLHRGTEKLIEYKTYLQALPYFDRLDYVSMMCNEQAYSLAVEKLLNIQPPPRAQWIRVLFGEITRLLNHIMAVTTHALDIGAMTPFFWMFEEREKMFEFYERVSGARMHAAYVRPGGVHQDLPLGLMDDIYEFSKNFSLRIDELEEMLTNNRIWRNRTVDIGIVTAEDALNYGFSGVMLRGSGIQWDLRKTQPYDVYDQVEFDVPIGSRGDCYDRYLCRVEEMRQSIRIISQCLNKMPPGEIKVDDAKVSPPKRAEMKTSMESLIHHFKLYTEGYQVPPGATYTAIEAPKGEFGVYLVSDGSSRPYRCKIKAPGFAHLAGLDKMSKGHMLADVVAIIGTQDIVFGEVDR", "sequence (P42026 38-216)": "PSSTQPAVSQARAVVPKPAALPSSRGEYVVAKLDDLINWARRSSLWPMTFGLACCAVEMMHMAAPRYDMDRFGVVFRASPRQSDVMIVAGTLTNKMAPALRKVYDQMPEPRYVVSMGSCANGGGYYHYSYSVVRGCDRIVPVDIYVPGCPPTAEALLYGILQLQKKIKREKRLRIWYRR", "assay": "biochemical", "type": "biochemical", "conditions": "for IC50: B. taurus heart mitochondria, read-out: B. taurus Complex I IC50; for Log IC50 B. taurus complex I: log10 of IC50 in µM, B. taurus mitochondria", "in_short": "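Complex I activity followed as DCIP reduction (600 nm, 30 s reads, 15 min) with 80 μM NADH and 60 μM decylubiquinone in 25 mM KPi pH 7.5 containing 2 μM antimycin A and 2 mM KCN. Freeze-thawed mouse or bovine heart mitochondria at 0.2 mg/mL; initial-rate percent of solvent control, single-point 100 μM or dose-response.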"}, "[3]": {"test_system": "L1 wild-type C. elegans", "assay": "microbe, parasite or virus in culture", "conditions": "Caenorhabditis elegans, read-out: C. elegans KCN Survival Assay LC50, estimated from fitted dose-response curves; mean of at least two biological replicates"}, "[4]": {"test_system": "L1 wild-type C. elegans"}, "[5]": {"test_system": "ben-1 mutant (ECA882) C. elegans", "assay": "microbe, parasite or virus in culture", "conditions": "Caenorhabditis elegans", "in_short": "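Development and viability scored from single well images as total worm pixels divided by the matching DMSO control value, mean of ≥3 replicates. Worms added as synchronized L1s to HB101 suspension in liquid NGM with compound (1% DMSO v/v), grown 6 days at 20 °C with shaking.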"}, "[6]": {"conditions": "read-out: C. elegans (ben-1) Development & Viability Assay LC50"}, "[7]": {"conditions": "read-out: C. elegans ben-1(e1880) development/viability"}, "[8]": {"conditions": "read-out: C. elegans ben-1 log10 LC50 (converted)"}, "[9]": {"conditions": "mean of at least two biological replicates"}, "[10]": {"conditions": "estimated from fitted dose-response curves"}}, "note": "Where two headings read alike, the source gives them in different places.", "data": [{"smiles": "Clc1ccc(OCCn2cnc3ccccc32)c(Cl)c1", "note": "[Compound 7221649]", "values": [{"measurement": "CC50 at 2 days", "setting": "[1]", "result": 55.3, "unit": "µM"}, {"measurement": "viability at 2 days, 3.13 µM", "setting": "[1]; HEK293 cells (Flp-In-293), HEK293 viability, Dose 3.13 µM", "result": 100, "unit": "%"}, {"measurement": "viability at 2 days, 6.25 µM", "setting": "[1]; HEK293 cells (Flp-In-293), HEK293 viability, Dose 6.25 µM", "result": 100, "unit": "%"}, {"measurement": "viability at 2 days, 12.5 µM", "setting": "[1]; HEK293 cells (Flp-In-293), HEK293 viability, Dose 12.5 µM", "result": 100, "unit": "%"}, {"measurement": "viability at 2 days, 25 µM", "setting": "[1]; HEK293 cells (Flp-In-293), HEK293 viability, Dose 25 µM", "result": 100, "unit": "%"}, {"measurement": "viability at 2 days, 50 µM", "setting": "[1]; HEK293 cells (Flp-In-293), HEK293 viability, Dose 50 µM", "result": 61.2, "unit": "%"}, {"measurement": "viability at 2 days, 100 µM", "setting": "[1]; HEK293 cells (Flp-In-293), HEK293 viability, Dose 100 µM", "result": 7.3, "unit": "%"}, {"measurement": "IC50", "setting": "[2]", "result": 10.7, "unit": "µM"}, {"measurement": "activity at 0.0001 µM", "setting": "[2]; Dose 0.0001 µM, read-out: B. taurus mitochondrial complex I activity", "result": 92.5, "unit": "%"}, {"measurement": "activity at 0.0005 µM", "setting": "[2]; Dose 0.0005 µM, read-out: B. taurus mitochondrial complex I activity", "result": 88.5, "unit": "%"}, {"measurement": "activity at 0.001 µM", "setting": "[2]; Dose 0.001 µM, read-out: B. taurus mitochondrial complex I activity", "result": 89.7, "unit": "%"}, {"measurement": "activity at 0.0025 µM", "setting": "[2]; Dose 0.0025 µM, read-out: B. taurus mitochondrial complex I activity", "result": 97.8, "unit": "%"}, {"measurement": "activity at 0.005 µM", "setting": "[2]; Dose 0.005 µM, read-out: B. taurus mitochondrial complex I activity", "result": 98.8, "unit": "%"}, {"measurement": "activity at 0.013 µM", "setting": "[2]; Dose 0.013 µM, read-out: B. taurus mitochondrial complex I activity", "result": 94.3, "unit": "%"}, {"measurement": "activity at 0.025 µM", "setting": "[2]; Dose 0.025 µM, read-out: B. taurus mitochondrial complex I activity", "result": 92, "unit": "%"}, {"measurement": "activity at 0.063 µM", "setting": "[2]; Dose 0.063 µM, read-out: B. taurus mitochondrial complex I activity", "result": 90.2, "unit": "%"}, {"measurement": "activity at 0.125 µM", "setting": "[2]; Dose 0.125 µM, read-out: B. taurus mitochondrial complex I activity", "result": 86.5, "unit": "%"}, {"measurement": "activity at 0.313 µM", "setting": "[2]; Dose 0.313 µM, read-out: B. taurus mitochondrial complex I activity", "result": 88, "unit": "%"}, {"measurement": "activity at 0.625 µM", "setting": "[2]; Dose 0.625 µM, read-out: B. taurus mitochondrial complex I activity", "result": 83.9, "unit": "%"}, {"measurement": "activity at 1.5 µM", "setting": "[2]; Dose 1.5 µM, read-out: B. taurus mitochondrial complex I activity", "result": 85.6, "unit": "%"}, {"measurement": "activity at 3 µM", "setting": "[2]; Dose 3 µM, read-out: B. taurus mitochondrial complex I activity", "result": 77.8, "unit": "%"}, {"measurement": "activity at 15 µM", "setting": "[2]; Dose 15 µM, read-out: B. taurus mitochondrial complex I activity", "result": 33, "unit": "%"}, {"measurement": "activity at 37.5 µM", "setting": "[2]; Dose 37.5 µM, read-out: B. taurus mitochondrial complex I activity", "result": 7.81, "unit": "%"}, {"measurement": "activity at 75 µM", "setting": "[2]; Dose 75 µM, read-out: B. taurus mitochondrial complex I activity", "result": 3.92, "unit": "%"}, {"measurement": "Log IC50 B. taurus complex I", "setting": "[2]", "result": 1.03, "unit": "µM"}, {"measurement": "LC50", "setting": "[3]", "result": 13, "unit": "µM"}, {"measurement": "Screen \"Hit\"", "setting": "[4]; 50 μM, hit = relative motility below 0.25 3 hours after removal of KCN", "result": "Y (hits were identified as compounds that reduced relative motility below 0.25 (75% reduction))"}, {"measurement": "C. elegans KCN Survival", "setting": "[4]; Dose 0.2 µM, mean of at least three biological replicates", "result": 0.959}, {"measurement": "C. elegans KCN Survival", "setting": "[4]; Dose 0.39 µM", "result": 0.956}, {"measurement": "C. elegans KCN Survival", "setting": "[4]; Dose 1.56 µM", "result": 1.007}, {"measurement": "C. elegans KCN Survival", "setting": "[4]; Dose 3.13 µM", "result": 1.008}, {"measurement": "C. elegans KCN Survival", "setting": "[4]; Dose 6.25 µM", "result": 0.946}, {"measurement": "C. elegans KCN Survival", "setting": "[4]; Dose 12.5 µM", "result": 0.599}, {"measurement": "C. elegans KCN Survival", "setting": "[4]; Dose 25 µM", "result": 0.152}, {"measurement": "C. elegans KCN Survival", "setting": "[4]; Dose 50 µM", "result": 0.156}, {"measurement": "C. elegans KCN Survival", "setting": "[4]; Dose 100 µM", "result": 0.254}, {"measurement": "LC50", "setting": "[5]; [6]", "result": 37.2, "unit": "µM"}, {"measurement": "viability at 1 µM", "setting": "[5]; [7]", "result": 86.6, "unit": "%"}, {"measurement": "viability at 2 µM", "setting": "[5]; [7]", "result": 85.6, "unit": "%"}, {"measurement": "viability at 3.9 µM", "setting": "[5]; [7]", "result": 87.8, "unit": "%"}, {"measurement": "viability at 15.6 µM", "setting": "[5]; [7]", "result": 91.2, "unit": "%"}, {"measurement": "viability at 31.3 µM", "setting": "[5]; [7]", "result": 64.6, "unit": "%"}, {"measurement": "viability at 62.5 µM", "setting": "[5]; [7]", "result": 3.9, "unit": "%"}, {"measurement": "viability at 125 µM", "setting": "[5]; [7]", "result": 37.3, "unit": "%"}, {"measurement": "LC50", "setting": "[5]; [8]", "result": 37.2, "unit": "µM"}]}, {"smiles": "Nc1nc2ccccc2n1Cc1ccc(Br)cc1", "note": "[Compound 7313068]", "values": [{"measurement": "CC50 at 2 days", "setting": "[1]; [9]", "result": 41.7, "unit": "µM"}, {"measurement": "IC50", "setting": "[2]; [10]", "result": 1.31, "unit": "µM"}, {"measurement": "Log IC50 B. taurus complex I", "setting": "[2]", "result": 0.12, "unit": "µM"}, {"measurement": "LC50", "setting": "[3]", "result": 14.9, "unit": "µM"}, {"measurement": "Screen \"Hit\"", "setting": "[4]; 50 μM, KCN survival assay, hit = relative motility below 0.25", "result": "Y (hits were identified as compounds that reduced relative motility below 0.25 (75% reduction))"}, {"measurement": "LC50", "setting": "[5]; [6]", "result": 63.1, "unit": "µM"}, {"measurement": "LC50", "setting": "[5]; [8]", "result": 63.1, "unit": "µM"}]}, {"smiles": "Cc1nc2ccccc2n1Cc1ccc(C(C)C)cc1", "note": "[Compound 7353551]", "values": [{"measurement": "CC50 at 2 days", "setting": "[1]; [9]", "result": 46.2, "unit": "µM"}, {"measurement": "IC50", "setting": "[2]; [10]", "result": 1.57, "unit": "µM"}, {"measurement": "Log IC50 B. taurus complex I", "setting": "[2]", "result": 0.20, "unit": "µM"}, {"measurement": "LC50", "setting": "[3]", "result": 7, "unit": "µM"}, {"measurement": "Screen \"Hit\"", "setting": "[4]; 50 μM compound, hit = relative motility below 0.25 3 hours after removal of KCN", "result": "Y (hits were identified as compounds that reduced relative motility below 0.25 (75% reduction))"}, {"measurement": "LC50", "setting": "[5]; [6]", "result": 91.5, "unit": "µM"}, {"measurement": "LC50", "setting": "[5]; [8]", "result": 91.6, "unit": "µM"}]}]}
